Results: patent US20040019066A1, “Methionine salvage pathway in bacillus” (priority 2002, published 2004)

Columns and labels:
[1] = test system: Strain BSHP7014 (mtnW:lacZ amyE::pxyl mtnXYZ); experiment: Toxicity of MTR for BSHP7014 strain (paper disc on ED1 minimal medium plates); type: cell-based, Bacillus subtilis; details: inferred from MTR toxicity in mtnU or mtnW mutants with functional mtnY
Protocol: Toxicity of MTR for BSHP7014 strain. Strain BSHP7014 (mtnW:lacZ amyE::pxyl mtnXYZ) was grown on ED1 minimal medium plates in the presence of sulfate as sulfur source (panel A) or in the absence of any added sulfur source (agar as sole sulfur source, panel B). Xylose was added to the medium in order to trigger the expression of mtnXYZ from the pxyl promoter, 10 μl of methionine (met) or MTR was adsorbed on paper discs and plates were incubated over-night at 37° C. Methionine was used as a control for growth and/or toxicity of the sulfur source.
Two genes in the pathway are dispensable, mtnV and mtnX. The first one encodes a transaminase of which there are nine putative paralogs in the genome of B. subtilis (YwfG, AlaT, AspB, PatA, YhdR, YdfD, PatB, YisV, and HisC). In the same way, MtnX (YkrX) is a member of the phosphatase family pfam00702 ([12], FIG. 6), and therefore of a ubiquitous class of hydrolases (several phosphatase genes, in particular are present in the genome of B. subtilis). This is likely to account for the lack of phenotype under our growth conditions. […] In contrast, we discovered that MTR is toxic when the distal genes are present (when used as sole sulfur source or in the presence of sulfate, see FIG. 7). Because of the weak phenotype of a mtnZ mutant and the absence of phenotype of a mtnX mutant, we can be confident that MtnY acts before MtnW (this is a common feature in operons, where it is generally observed that the more distal genes code for proteins acting in the more proximate steps of the pathway).
Bacterial strains and plasmids, and growth media: E. coli and B. subtilis strains as well as plasmids used in this work are listed in Table 3. E. coli TG1 and XL1-Blue were used for cloning experiments (TG1 for single cross-over recombination and XL1-Blue for double cross-over recombination). Despite the fact that there are no public regulations yet in this domain in China, all experiments were performed in accordance with the European regulation requirements concerning the contained use of Genetically Modified Organisms of Group-I (French agreement N^o 2735). […] In the latter case, 10 [μl of the sulfur source under investigation was applicated onto paper discs (MTR, 200 mM stock solution and methionine, 100 mM stock solution) deposited at the center of the plate, after bacteria had been uniformly spread at the surface of the plate, and growth was measured around the disK. […] The optical density (OD) of bacterial cultures was measured at 600 nm. […]

B. subtilis [2] = experiment: Growth in the presence of trifluoromethylthioribose (3F-MTR), resistance phenotype; type: cell-based, Bacillus subtilis; details: inactivation of mtnK, mtnS, mtnY and mtnW
Excerpt: Mutants were obtained by transformation of a wild type strain with a random transposon library, selecting for growth in the presence of trifluoromethylthioribose (3F-MTR). The mutants were subsequently tested for growth on plates lacking sulfur source but supplemented with MTR: only those that could not grow were retained for further study. In order to ascertain that the resistant phenotype was not coming from secondary mutations but was directly related to the transposon insert, the chromosome DNA was extracted from each putative mutant and back transformed into a wild type strain selecting for the transposon antibiotic marker. The 3F-MTR and MTR phenotypes were subsequently tested and only those mutants that passed the test were retained. The insertion positions of the transposons were then sequenced. […]
Bacterial strains and plasmids, and growth media: E. coli and B. subtilis strains as well as plasmids used in this work are listed in Table 3. […] In the latter case, 10 [μl of the sulfur source under investigation was applicated onto paper discs (MTR, 200 mM stock solution and methionine, 100 mM stock solution) deposited at the center of the plate, after bacteria had been uniformly spread at the surface of the plate, and growth was measured around the disK. […] The optical density (OD) of bacterial cultures was measured at 600 nm. […]

B. subtilis [3] = details: if the methyl sulfur moiety of the molecule is recycled; reference [13]; cited from earlier work

Structure (SMILES) | Toxicity to the cells [1] | Phenotype towards 3F-MTR (B. subtilis [2]) | Toxicity of the MTR analog (B. subtilis [3])
CSCC(O)C(O)C(=O)COP(=O)(O)O (stereo not drawn) [5-thiomethylribulose-1-phosphate] | toxic | – | –
O=C[C@H](O)[C@H](O)[C@H](O)CSC(F)(F)F [3F-MTR, 5-thio-5-5-S-trifluoromethyl-D-ribose] | – | resistance | toxic
